Laboratory results: paper PMC7017082, “Tivantinib, A c-Met Inhibitor in Clinical Trials, Is Susceptible to ABCG2-Mediated Drug Resistance” (Cancers, 2020)

Molecular target: T1, ABCG2 (ATP-binding cassette super-family G member 2, BCRP) (Homo sapiens, UniProt Q9UNQ0)
T1 construct: ABCG2 in insect cell membrane vesicles
T1 sequence (Q9UNQ0 1-655): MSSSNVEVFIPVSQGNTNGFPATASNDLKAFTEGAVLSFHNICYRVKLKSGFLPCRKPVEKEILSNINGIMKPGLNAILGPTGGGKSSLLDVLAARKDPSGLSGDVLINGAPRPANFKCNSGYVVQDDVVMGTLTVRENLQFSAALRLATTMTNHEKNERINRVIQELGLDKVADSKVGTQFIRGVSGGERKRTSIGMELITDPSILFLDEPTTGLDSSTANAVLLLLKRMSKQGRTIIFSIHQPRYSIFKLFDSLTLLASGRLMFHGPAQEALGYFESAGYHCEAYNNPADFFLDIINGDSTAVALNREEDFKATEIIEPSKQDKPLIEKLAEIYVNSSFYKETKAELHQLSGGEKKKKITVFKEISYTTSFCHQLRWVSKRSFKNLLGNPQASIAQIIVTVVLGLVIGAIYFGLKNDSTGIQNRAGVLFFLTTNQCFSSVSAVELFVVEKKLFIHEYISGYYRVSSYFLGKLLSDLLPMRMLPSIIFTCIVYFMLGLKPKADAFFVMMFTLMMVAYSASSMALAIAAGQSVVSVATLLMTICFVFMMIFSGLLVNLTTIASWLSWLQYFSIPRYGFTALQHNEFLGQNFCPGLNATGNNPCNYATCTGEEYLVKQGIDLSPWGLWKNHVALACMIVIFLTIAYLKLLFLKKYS
Assay: biochemical

- EC50: 6.76 µM
SMILES: O=C1NC(=O)[C@@H](c2cn3c4c(cccc24)CCC3)[C@@H]1c1c[nH]c2ccccc12 [Tivantinib]
